Reference: patent US12251387B2, “Substituted quinoxalines and benzo[c][1,2,5]oxadiazoles as DNA-PK inhibitors” (Vertex Pharmaceuticals Incorporated, priority 2013, dated 2025)
pKi: −log10 of the molar value.

The molecules below were run against DNA-PK (Homo sapiens, UniProt P78527) (assay: DNA-PK Inhibition Assay (standard radiometric kinase assay, 33P-ATP, peptide substrate)). Details: radiometric assay, approximately 6 nM DNA-PK, 100 μM ATP, 45 min; fit to competitive tight-binding inhibition; read-out: Ki for the inhibition of DNA-PK.
Assay type: biochemical
Summary of the method: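 Radiometric transfer of 33P from ATP (100 μM) to peptide substrate (0.8 mg/mL) by about 6 nM DNA-PK with 10 μg/mL sheared dsDNA, pH 7.5 HEPES/MgCl2, 45 min, phosphoric acid quench, filter capture and scintillation counting. Ki fitted to a competitive tight-binding inhibition model.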

Compound	pKi
COC(=O)[C@H](CC(C)C)NC(=O)N[C@H]1CC[C@@H](Oc2cc(N3CCOCC3)cc3nccnc23)CC1 [Compound 391]	> 7.00
c1nc(CN2CCCCC2)cc(N[C@H]2CC[C@@H](Oc3cc(N4CCOCC4)cc4nccnc34)CC2)n1 [Compound 389]	> 7.00
c1cnc2c(O[C@H]3CC[C@@H](Nc4ccc(C5CCC5)nn4)CC3)cc(N3CCOCC3)cc2n1 [Compound 601]	> 7.00
CN1CCC(NC(=O)N[C@H]2CC[C@@H](Oc3cc(N4CCOCC4)cc4nccnc34)CC2)CC1 [Compound 363]	> 7.00
COCc1cc(N[C@H]2CC[C@@H](Oc3cc(N4CC5CC(C4)O5)cc4nccnc34)CC2)nc(C)n1 [Compound 309]	> 7.00
COc1ncccc1N[C@H]1CC[C@@H](Oc2cc(N3CCOCC3)cc3nccnc23)CC1 [Compound 445]	> 7.00
COc1nc(Cl)nc(N[C@H]2CC[C@@H](Oc3cc(N4CCOCC4)cc4nccnc34)CC2)n1 [Compound 609]	> 7.00
CCOC1CCN(c2cc(N[C@H]3CC[C@@H](Oc4cc(N5CCOCC5)cc5nccnc45)CC3)ncn2)CC1 [Compound 472]	> 7.00
CC1(C)OCc2cc(N[C@H]3CC[C@@H](Oc4cc(N5CCOCC5)cc5nccnc45)CC3)cnc21 [Compound 571]	> 7.00
CN(C)CCOc1ccnc(N[C@H]2CC[C@@H](Oc3cc(N4CCOCC4)cc4nccnc34)CC2)n1 [Compound 559]	> 7.00
O=C1Cc2c(ncnc2N[C@H]2CC[C@@H](Oc3cc(N4CCOCC4)cc4nccnc34)CC2)N1 [Compound 502]	> 7.00
Cc1ncc(-c2cc(N[C@H]3CC[C@@H](Oc4cc(N5CCOCC5)cc5nccnc45)CC3)ncn2)cn1 [Compound 426]	> 7.00
FC(F)(F)c1ccc(N[C@H]2CC[C@@H](Oc3cc(N4CCOCC4)cc4nccnc34)CC2)cn1 [Compound 427]	> 7.00
Cn1nc(N[C@H]2CC[C@@H](Oc3cc(N4CCOCC4)cc4nccnc34)CC2)c2cccnc21 [Compound 329]	> 7.00
FC(F)(F)c1cnc(N[C@H]2CC[C@@H](Oc3cc(N4CCOCC4)cc4nccnc34)CC2)nc1 [Compound 418]	> 7.00
CN(C)CCOc1ccc(N[C@H]2CC[C@@H](Oc3cc(N4CCOCC4)cc4nccnc34)CC2)nc1 [Compound 654]	> 7.00
Cc1cncc(N[C@H]2CC[C@@H](Oc3cc(N4CCOCC4)cc4nccnc34)CC2)n1 [Compound 373]	> 7.00
COc1ncc(F)c(N[C@H]2CC[C@@H](Oc3cc(N4CCOCC4)cc4nccnc34)CC2)n1 [Compound 396]	> 7.00
Cc1nccnc1N[C@H]1CC[C@@H](Oc2cc(N3CCOCC3)cc3nccnc23)CC1 [Compound 335]	> 7.00
OCc1cnc(N[C@H]2CC[C@@H](Oc3cc(N4CCOCC4)cc4nccnc34)CC2)cn1 [Compound 577]	> 7.00
OCCN1CCN(c2cc(N[C@H]3CC[C@@H](Oc4cc(N5CCOCC5)cc5nccnc45)CC3)ncn2)CC1 [Compound 499]	> 7.00
CNC(=O)c1cc(N[C@H]2CC[C@@H](Oc3cc(N4CCOCC4)cc4nccnc34)CC2)ncn1 [Compound 360]	> 7.00
CC(C)(C)OC(=O)N1CCn2cnc(N[C@H]3CC[C@@H](Oc4cc(N5CCOCC5)cc5nccnc45)CC3)c2C1 [Compound 296]	> 7.00
CN1CCN(C(=O)N[C@H]2CC[C@@H](Oc3cc(N4CCOCC4)cc4nccnc34)CC2)CC1 [Compound 414]	> 7.00

Compound	pKi
Cc1cnc2cc(N3CCOCC3)cc(O[C@H]3CC[C@@H](Nc4ncc(C5CCN(C)CC5)cn4)CC3)c2n1 [Compound 544]	> 7.00
COc1cccc(N[C@H]2CC[C@@H](Oc3cc(N4CCOCC4)cc4nccnc34)CC2)c1 [Compound 408]	> 7.00
O=C(O)c1ccc(N[C@H]2CC[C@@H](Oc3cc(N4CCOCC4)cc4nccnc34)CC2)cn1 [Compound 393]	> 7.00
CC(C)(C)OC(=O)N1CCC(c2cnc(N[C@H]3CC[C@@H](Oc4cc(N5CCOCC5)cc5nccnc45)CC3)nc2)C1 (some centres unmarked) [Compound 570]	> 7.00
O=Cc1cnc2cc(N3CCOCC3)cc(O[C@H]3CC[C@@H](Nc4ncccn4)CC3)c2n1 [Compound 620]	> 7.00
c1cnc2c(O[C@H]3CC[C@@H](Nc4ncc(OCCN5CCCCC5)cn4)CC3)cc(N3CCOCC3)cc2n1 [Compound 613]	> 7.00
CC(C)c1cc(N[C@H]2CC[C@@H](Oc3cc(N4CCOCC4)cc4nccnc34)CC2)ncn1 [Compound 652]	> 7.00
Cc1nccc(N[C@H]2CC[C@@H](Oc3cc(N4CCO[C@H](C)C4)cc4nccnc34)CC2)n1 [Compound 290]	> 7.00
Cc1cc(N[C@H]2CC[C@@H](Oc3cc(N4CCOCC4)cc4nccnc34)CC2)cc(C)n1 [Compound 286]	> 7.00
c1cnc2nc(N[C@H]3CC[C@@H](Oc4cc(N5CCOCC5)cc5nccnc45)CC3)sc2c1 [Compound 330]	> 7.00
c1cc(N[C@H]2CC[C@@H](Oc3cc(N4CCOCC4)cc4nccnc34)CC2)c2c(c1)OCO2 [Compound 339]	> 7.00
Cc1ccnc(N[C@H]2CC[C@@H](Oc3cc(N4CCOCC4)cc4nccnc34)CC2)c1 [Compound 283]	> 7.00
NC1(c2ccc(N[C@H]3CC[C@@H](Oc4cc(N5CCOCC5)cc5nccnc45)CC3)cn2)CC1 [Compound 466]	> 7.00
CCOc1cccc(N[C@H]2CC[C@@H](Oc3cc(N4CCOCC4)cc4nccnc34)CC2)n1 [Compound 588]	> 7.00
c1cnc2c(O[C@H]3CC[C@@H](Nc4ncc5c(n4)OCC5)CC3)cc(N3CCOCC3)cc2n1 [Compound 621]	> 7.00
COc1cncc(N[C@H]2CC[C@@H](Oc3cc(N4CCOCC4)cc4nccnc34)CC2)c1 [Compound 446]	> 7.00
Cc1cc(C)n2nc(N[C@H]3CC[C@@H](Oc4cc(N5CCOCC5)cc5nccnc45)CC3)nc2n1 [Compound 299]	> 7.00
Clc1nc(N[C@H]2CC[C@@H](Oc3cc(N4CCOCC4)cc4nccnc34)CC2)c2[nH]ccc2n1 [Compound 513]	> 7.00
Cc1nccc(N[C@H]2CC[C@@H](Oc3cc(N4CC5CCC(C4)O5)cc4nccnc34)CC2)n1 [Compound 297]	> 7.00
CN(C)c1ccc(N[C@H]2CC[C@@H](Oc3cc(N4CCOCC4)cc4nccnc34)CC2)nn1 [Compound 598]	> 7.00
OC1(c2cnc(N[C@H]3CC[C@@H](Oc4cc(N5CCOCC5)cc5nccnc45)CC3)nc2)COC1 [Compound 610]	> 7.00
Cc1cnc2c(O[C@H]3CC[C@@H](Nc4ncc(C5CCN(C)CC5)cn4)CC3)cc(N3CCOCC3)cc2n1 [Compound 543]	> 7.00
c1cnc2c(O[C@H]3C[C@@H](Nc4ncnc5ccoc45)C3)cc(N3CCOCC3)cc2n1 [Compound 356]	> 7.00
FC(F)(F)c1cccnc1N[C@H]1CC[C@@H](Oc2cc(N3CCOCC3)cc3nccnc23)CC1 [Compound 593]	> 7.00

Compound	pKi
CNc1nc(N[C@H]2CC[C@@H](Oc3cc(N4CCOCC4)cc4nccnc34)CC2)ncc1F [Compound 482]	> 7.00
N#Cc1cncnc1N[C@H]1CC[C@@H](Oc2cc(N3CCOCC3)cc3nccnc23)CC1 [Compound 422]	> 7.00
COCCOc1ccnc(N[C@H]2CC[C@@H](Oc3cc(N4CCOCC4)cc4nccnc34)CC2)n1 [Compound 558]	> 7.00
c1nc2c(c(N[C@H]3CC[C@@H](Oc4cc(N5CCOCC5)cc5nccnc45)CC3)n1)OCC2 [Compound 464]	> 7.00
CNC(=O)c1cnc(N[C@H]2CC[C@@H](Oc3cc(N4CCOCC4)cc4nccnc34)CC2)nc1C [Compound 287]	> 7.00
c1cc(N[C@H]2CC[C@@H](Oc3cc(N4CCOCC4)cc4nccnc34)CC2)n2ncnc2c1 [Compound 581]	> 7.00
CN1CCN(c2ncnc(N[C@H]3CC[C@@H](Oc4cc(N5CCOCC5)cc5nccnc45)CC3)c2F)CC1 [Compound 474]	> 7.00
CNC(=O)c1cc(C)nc(N[C@H]2CC[C@@H](Oc3cc(N4CCOCC4)cc4nccnc34)CC2)n1 [Compound 308]	> 7.00
c1cnc2c(O[C@H]3CC[C@@H](Nc4ncnc5occc45)CC3)cc(N3CCOCC3)cc2n1 [Compound 518]	> 7.00
COC(=O)c1cc(N[C@H]2CC[C@@H](Oc3cc(N4CCOCC4)cc4nccnc34)CC2)ncc1O [Compound 404]	> 7.00
COCCOc1ccc(N[C@H]2CC[C@@H](Oc3cc(N4CCOCC4)cc4nccnc34)CC2)nc1 [Compound 625]	> 7.00
COc1cc(N[C@H]2CC[C@@H](Oc3cc(N4CCOCC4)cc4nccnc34)CC2)nc(N(C)C)n1 [Compound 553]	> 7.00
c1nc(N[C@H]2CC[C@@H](Oc3cc(N4CCOCC4)cc4nccnc34)CC2)cc(C2CC2)n1 [Compound 650]	> 7.00
COc1ccc(N[C@H]2CC[C@@H](Oc3cc(N4CCOCC4)cc4nccnc34)CC2)nc1OC [Compound 583]	> 7.00
CN(C)CCOc1ncnc(N[C@H]2CC[C@@H](Oc3cc(N4CCOCC4)cc4nccnc34)CC2)c1F [Compound 362]	> 7.00
c1ccc(N[C@H]2CC[C@@H](Oc3cc(N4CCOCC4)cc4nccnc34)CC2)cc1 [Compound 648]	> 7.00
c1cnc2c(O[C@H]3CC[C@@H](Nc4ncc(OCCCN5CCOCC5)cn4)CC3)cc(N3CCOCC3)cc2n1 [Compound 526]	> 7.00
Cc1cc(N[C@H]2CC[C@@H](Oc3cc(N4CCOCC4)cc4nccnc34)CC2)n2ncnc2n1 [Compound 536]	> 7.00
c1cnc2c(O[C@H]3CC[C@@H](Nc4ncc(CN5CCCCC5)cn4)CC3)cc(N3CCOCC3)cc2n1 [Compound 495]	> 7.00
Cc1nc2c(c(N[C@H]3CC[C@@H](Oc4cc(N5CCOCC5)cc5nccnc45)CC3)n1)COC2 [Compound 452]	> 7.00
Fc1c(N[C@H]2CC[C@@H](Oc3cc(N4CCOCC4)cc4nccnc34)CC2)ncnc1N1CCOCC1 [Compound 511]	> 7.00
c1cnc2c(O[C@H]3CC[C@@H](Nc4ncc(CN5CCCC5)cn4)CC3)cc(N3CCOCC3)cc2n1 [Compound 528]	> 7.00
COc1c(N[C@H]2CC[C@@H](Oc3cc(N4CCOCC4)cc4nccnc34)CC2)ncnc1N(C)C [Compound 388]	> 7.00
